Measurements taken from US20120156715A1, “Environmental Sentinel Biomonitor System (ESB)” (priority 2010, published 2012).
Where two headings read alike, the source gives them in different places.

Assays:
[1] = system: RTgill-W1 cells; assay type: cell-based, rainbow trout, Oncorhynchus mykiss
[2] = system: RTgill-W1 cells; assay: Long-term storage testing of RTgill-W1 fluidic biochips with PCP exposure (ECIS); assay type: cell-based, rainbow trout, Oncorhynchus mykiss; settings: 9.4 μM
Method: The following description provides an example of a method for long-term testing of RTgill-W1 fluidic biochips according to an embodiment of the invention. In order to study the effects of cold storage with no media replenishment on the viability and sensitivity of the RTgill-W1 cells, fluidic biochips are seeded, held at 20° C., and media changes are performed on days 4 and 7 as described above, then held at 6° C. with no media replenishment for up to one year. Three chips are removed for viability assessment and ECIS testing using the 9.4 μM detection level for PCP (FIG. 1) at 4, 8, 12, 16, 20, 24, 32, 38, and 52 weeks and the chemical exposure procedure described above.
The following description provides an example of a method for statistical analysis according to an embodiment of the invention. A curve discrimination program using MATLAB (available from The MathWorks, Inc., Natick, Mass.) is used to perform the statistical analysis. […] This program analyzes impedance data from control and toxicant-exposed cells every minute during a 60 minute window. The overall difference between the two groups of curves is compared at each time point, and the difference between their averages is assessed relative to the within-group variability. A confidence level of […] (p<0.001) is used to establish statistical significance. Functional data analysis techniques are used to extend the standard single time point analysis of variance approach to a curve consisting of approximately 60 points. The lowest toxicant concentrations that cause a significant change in impedance in at least ten consecutive time intervals over a 60 minute period are reported as the detection levels in FIG. 1.
Unfed RTgill-W1 cells are maintained at 6° C. for different durations and subsequently tested with PCP exposures at 9.4 μM. […] The line with triangle data points and the line with square data points show, respectively, 1-hour and 4-hour average of response difference between the control and treatment channels at each respective storage time for 3 replicate fluidic biochips. Significance at each time point (p<0.001) is depicted by an * and requires a positive detection for all 3 replicate chips using the curve discrimination program. […] If the impedance patterns shown for the 12° C. and 20° C. chips are predictive indicators of the impedance patterns of the 6° C. chips, the 6° C. chips may remain viable for approximately 18 months, but most likely not beyond 2 years of storage.

[3] = one hour exposure, MEG = Military Exposure Guideline, HLC = Human Lethal Concentration, ECIS impedance

Compound | chips in which the chemical is detected ([1]; at levels above the HLC) | concentration at which the chemical is detected, relative to MEG and HLC [1, 3] | change in impedance compared to controls [1] | concentration at which the chemical is detected, relative to MEG and HLC [1] | other results
C=CC#N [Acrylonitrile, acrylonitrile] | 3 out of 3 | above the HLC | – | – | –
CNC(=O)O/N=C/C(C)(C)SC [aldicarb] | 3 out of 3 | above the HLC | – | – | –
Cl.N [ammonia, ammonium chloride] | – | – | – | – | change in impedance compared to controls ([1]; one hour exposure, p<0.001): significant decrease
[N-]=[N+]=[N-] [azide] | – | – | significant decrease | between the MEG and the HLC | –
O=S(=O)([O-])[O-].[Cu+2] [copper, copper sulfate] | – | – | increased impedance | between the MEG and the HLC | –
O=C([O-])CF.[Na+] [fluoroacetate, sodium fluoroacetate] | – | – | – | above the HLC | chips in which the chemical is detected [1]: 3 out of 3
COP(N)(=O)SC (stereo not drawn) [methamidophos] | 3 out of 3 | above the HLC | – | – | –
COP(=S)(OC)Oc1ccc([N+](=O)[O-])cc1 [methyl parathion] | – | – | significant decrease | between the MEG and the HLC | –
CN1CCCC1c1cccnc1 (stereo not drawn) [nicotine] | – | – | – | above the HLC | chips in which the chemical is detected [1]: 3 out of 3
C[n+]1ccc(-c2cc[n+](C)cc2)cc1 [paraquat, paraquat dichloride] | 3 out of 3 | above the HLC | – | – | –
Oc1c(Cl)c(Cl)c(Cl)c(Cl)c1Cl [pentachlorophenate, sodium pentachlorophenate] | – | between the MEG and the HLC | – | – | responsiveness after one year storage ([2]; 1 hour and 4 hour exposures, one year storage at 6° C.): significantly responsive; response to PCP exposure ([2]; chips stored at 6° C. unfed, all storage time points indicated): positive response; significance of response, 4 hours exposure ([2]; storage at 6° C., additional at 140 and 266 days, p<0.001, 3 replicate chips): significant responses; significance of response, 1 hour exposure ([2]; storage at 6° C., time points of 14-114 days and 364 days, p<0.001, 3 replicate chips): significant; detection level ([1]; lowest concentration causing significant impedance change in at least ten consecutive time intervals over 60 minutes): 9.4 µM; change in impedance compared to controls ([1]; one hour exposure, p<0.001): significant decrease
Oc1ccccc1 [phenol] | – | – | – | above the HLC | chips in which the chemical is detected [1]: 3 out of 3
O=S(=O)([O-])[O-].[Tl+].[Tl+] [thallium, thallium sulfate] | 3 out of 3 | above the HLC | – | – | –
Cc1ccccc1 [toluene] | – | – | significant decrease | between the MEG and the HLC | –
mercuric chloride [mercury] | – | – | significant decrease | between the MEG and the HLC | –
sodium arsenite [arsenic] | – | – | significant decrease | between the MEG and the HLC | –
